Laboratory results reported in patent publication US9693997B2, “Antiviral compounds” (priority 2013, dated 2017).

How the values were obtained:
Experiment in all cases: microbe, parasite or virus in culture
[1] = test system: Pseudotyped HCV GT1b particles (HCVpp), entry into Huh7-high CD81 cells; type: cell-based, HCV GT1b Con1 strain; conditions: Hepatitis C virus, GT1B, 72 h, read-out: HCVpp GT-1b (EC50, μM)
[2] = test system: Pseudotyped HCV GT1a particles (HCVpp), entry into Huh7-high CD81 cells; type: cell-based, HCV GT1a H77 strain; conditions: Hepatitis C virus, 72 h, read-out: HCVpp GT-1a (EC50, μM)
[3] = test system: pseudotyped VSV G particles (VSVpp) in Huh7-high CD81 cells; type: cell-based, vesicular stomatitis virus; conditions: Vesicular stomatitis virus, 72 h, read-out: VSVpp (EC50, μM)

Row | SMILES | EC50 [1] [µM] | EC50 [2] [µM] | EC50 [3] [µM]
1 | CS(=O)(=O)c1ccc(-c2c(Cl)cc(Nc3n[nH]c(N)n3)cc2Cl)cc1 [Compound 94, N3-(2,6-Dichloro-4′-(methylsulfonyl)biphenyl-4-yl)-1H-1,2,4-triazole-3,5-diamine] | 0.174 | 0.007 | 2
2 | Nc1nc(Nc2cc(Cl)c(-c3cccc4ccccc34)c(Cl)c2)n[nH]1 [Compound 95, N-3-(3,5-Dichloro-4-naphthalen-1-yl-phenyl)-1H-[1,2,4]triazole-3,5-diamine] | 0.229 | 0.028 | 24.1
3 | Nc1nc(Nc2cc(Cl)c(-c3ccc(Cl)cc3)c(Cl)c2)n[nH]1 [Compound 96, N-3-(2,6,4′-Trichloro-biphenyl-4-yl)-1H-[1,2,4]triazole-3,5-diamine] | 0.927 | 0.009 | 4.27
4 | Cc1ccc(-c2c(Cl)cc(Nc3n[nH]c(N)n3)cc2Cl)cc1 [Compound 97, N-3-(2,6-Dichloro-4′-methyl-biphenyl-4-yl)-1H-[1,2,4]triazole-3,5-diamine] | 0.704 | 0.007 | 9.33
5 | COc1ccc(-c2c(Cl)cc(Nc3n[nH]c(N)n3)cc2Cl)cc1 [Compound 98, N-3-(2,6-Dichloro-4′-methoxy-biphenyl-4-yl)-1H-[1,2,4]triazole-3,5-diamine] | 0.353 | 0.01 | 5.25
6 | Nc1nc(Nc2cc(Cl)c(-c3ccc(C(F)(F)F)cc3)c(Cl)c2)n[nH]1 [Compound 99, N-3-(2,6-Dichloro-4′-trifluoromethyl-biphenyl-4-yl)-1H-[1,2,4]triazole-3,5-diamine] | 1.57 | 0.056 | 20.6
7 | COc1cccc(-c2c(Cl)cc(Nc3n[nH]c(N)n3)cc2Cl)c1 [Compound 100, N-3-(2,6-Dichloro-3′-methoxy-biphenyl-4-yl)-1H-[1,2,4]triazole-3,5-diamine] | 0.839 | 0.062 | 14.3
8 | Nc1nc(Nc2cc(Cl)c(-c3ccccc3Cl)c(Cl)c2)n[nH]1 [Compound 101, N-3-(2,6,2′-Trichloro-biphenyl-4-yl)-1H-[1,2,4]triazole-3,5-diamine] | 0.514 | 0.037 | 13.2
9 | Nc1nc(Nc2cc(Cl)c(-c3ccc(Cl)c(Cl)c3)c(Cl)c2)n[nH]1 [Compound 102, N-3-(2,6,3′,4′-Tetrachloro-biphenyl-4-yl)-1H-[1,2,4]triazole-3,5-diamine] | 0.931 | 0.062 | 6.33
10 | N#Cc1cccc(-c2c(Cl)cc(Nc3n[nH]c(N)n3)cc2Cl)c1 [Compound 103, 4′-(5-Amino-1H-[1,2,4]triazol-3-ylamino)-2′,6′-dichloro-biphenyl-3-carbonitrile] | 0.269 | 0.025 | 13.3
11 | N#Cc1ccccc1-c1c(Cl)cc(Nc2n[nH]c(N)n2)cc1Cl [Compound 104, 4′-(5-Amino-1H-[1,2,4]triazol-3-ylamino)-2′,6′-dichloro-biphenyl-2-carbonitrile] | 1.28 | 0.072 | 17.8
12 | N#Cc1cc(-c2c(Cl)cc(Nc3n[nH]c(N)n3)cc2Cl)ccc1Cl [Compound 105, 4′-(5-Amino-1H-[1,2,4]triazol-3-ylamino)-4,2′,6′-trichloro-biphenyl-3-carbonitrile] | 0.472 | 0.039 | 16.8
13 | Nc1nc(Nc2cc(Cl)c(-c3cccc(C(=O)O)c3)c(Cl)c2)n[nH]1 [Compound 106, 4′-(5-Amino-1H-[1,2,4]triazol-3-ylamino)-2′,6′-dichloro-biphenyl-3-carboxylic acid] | 23.4 | 1.17 | 100
14 | CC(=O)c1ccc(-c2c(Cl)cc(Nc3n[nH]c(N)n3)cc2Cl)cc1 [Compound 107, 1-[4′-(5-Amino-1H-[1,2,4]triazol-3-ylamino)-2′,6′-dichloro-biphenyl-4-yl]-ethanone] | 0.228 | 0.008 | 11.1
15 | CS(=O)(=O)Nc1ccc(-c2c(Cl)cc(Nc3n[nH]c(N)n3)cc2Cl)cc1 [Compound 111, N-[4′-(5-Amino-1H-[1,2,4]triazol-3-ylamino)-2′,6′-dichloro-biphenyl-4-yl]-methanesulfonamide] | 0.039 | 0.003 | 7.53
16 | CS(=O)(=O)Nc1cccc(-c2c(Cl)cc(Nc3n[nH]c(N)n3)cc2Cl)c1 [Compound 112, N-[4′-(5-Amino-1H-[1,2,4]triazol-3-ylamino)-2′,6′-dichloro-biphenyl-3-yl]-methanesulfonamide] | 0.048 | 0.006 | 15.3

Row | SMILES | EC50 [1] [µM] | EC50 [2] [µM] | EC50 [3] [µM]
17 | CS(=O)(=O)c1cccc(-c2c(Cl)cc(Nc3n[nH]c(N)n3)cc2Cl)c1 [Compound 114, N-3-(2,6-Dichloro-3′-methanesulfonyl-biphenyl-4-yl)-1H-[1,2,4]triazole-3,5-diamine] | 0.069 | 0.01 | 18.2
18 | CN(C)C(=O)c1cccc(-c2c(Cl)cc(Nc3n[nH]c(N)n3)cc2Cl)c1 [Compound 115, 4′-(5-Amino-1H-[1,2,4]triazol-3-ylamino)-2′,6′-dichloro-biphenyl-3-carboxylic acid dimethylamide] | 0.107 | 0.007 | 34.8
19 | CNC(=O)c1ccc(-c2c(Cl)cc(Nc3n[nH]c(N)n3)cc2Cl)cc1 [Compound 116, 4′-(5-Amino-1H-[1,2,4]triazol-3-ylamino)-2′,6′-dichloro-biphenyl-4-carboxylic acid methylamide] | 0.086 | 0.002 | 29.4
20 | CNC(=O)c1cccc(-c2c(Cl)cc(Nc3n[nH]c(N)n3)cc2Cl)c1 [Compound 117, 4′-(5-Amino-1H-[1,2,4]triazol-3-ylamino)-2′,6′-dichloro-biphenyl-3-carboxylic acid methylamide] | 0.218 | 0.011 | 26.1
21 | CNS(=O)(=O)c1ccc(-c2c(Cl)cc(Nc3n[nH]c(N)n3)cc2Cl)cc1 [Compound 118, 4′-(5-Amino-1H-[1,2,4]triazol-3-ylamino)-2′,6′-dichloro-biphenyl-4-sulfonic acid methylamide] | 0.013 | 0.004 | 4.24
22 | CC(C)S(=O)(=O)c1ccc(-c2c(Cl)cc(Nc3n[nH]c(N)n3)cc2Cl)cc1 [Compound 122, N-3-[2,6-Dichloro-4′-(propane-2-sulfonyl)-biphenyl-4-yl]-1H-[1,2,4]triazole-3,5-diamine] | 0.024 | 0.004 | 12.1
23 | CN(C)S(=O)(=O)c1ccc(-c2c(Cl)cc(Nc3n[nH]c(N)n3)cc2Cl)cc1 [Compound 123, 4′-(5-Amino-1H-[1,2,4]triazol-3-ylamino)-2′,6′-dichloro-biphenyl-4-sulfonic acid dimethylamide] | 0.042 | 0.002 | 11
24 | Nc1nc(Nc2ccc(-c3ccccc3)c(Cl)c2)n[nH]1 [Compound 144, N*3*-(2-Chloro-biphenyl-4-yl)-1H-[1,2,4]triazole-3,5-diamine] | 2.92 | 0.333 | 34.8
25 | Nc1nc(Nc2ccc(-c3ccc(F)cc3)c(Cl)c2)n[nH]1 [Compound 145, N*3*-(2-Chloro-4′-fluoro-biphenyl-4-yl)-1H-[1,2,4]triazole-3,5-diamine] | 6.02 | 0.532 | 39.1
26 | Nc1nc(Nc2ccc(-c3ccc(F)c(F)c3)c(Cl)c2)n[nH]1 [Compound 147, N*3*-(2-Chloro-3′,4′-difluoro-biphenyl-4-yl)-1H-[1,2,4]triazole-3,5-diamine] | 6.12 | 0.621 | 47.2
27 | Nc1nc(Nc2ccc(-c3cccc(F)c3)c(Cl)c2)n[nH]1 [Compound 148, N*3*-(2-Chloro-3′-fluoro-biphenyl-4-yl)-1H-[1,2,4]triazole-3,5-diamine] | 3.34 | 0.301 | 33.8
28 | NC(=O)c1ccc(-c2c(Cl)cc(Nc3n[nH]c(N)n3)cc2Cl)cc1 [Compound 159, 4′-(5-amino-1H-1,2,4-triazol-3-ylamino)-2′,6′-dichlorobiphenyl-4-carboxamide] | 0.164 | 0.005 | 4.62
29 | COc1ccc(-c2c(Cl)cc(Nc3n[nH]c(N)n3)cc2C(F)(F)F)cc1S(=O)(=O)N1CCN(C(=O)OC(C)(C)C)CC1 [Compound 166, tert-butyl 4-(4′-(5-amino-1H-1,2,4-triazol-3-ylamino)-2′-chloro-4-methoxy-6′-(trifluoromethyl)biphenyl-3-ylsulfonyl)piperazine-1-carboxylate] | 0.005 | 0.003 | > 10
30 | Nc1nc(Nc2cc(Cl)c(-c3ccc(S(=O)(=O)N4CCCC4)cc3)c(C(F)(F)F)c2)n[nH]1 [Compound 170, N3-(2-chloro-4′-(pyrrolidin-1-ylsulfonyl)-6-(trifluoromethyl)biphenyl-4-yl)-1H-1,2,4-triazole-3,5-diamine] | 0.026 | 0.02 | 14.1
31 | Nc1nc(Nc2cc(Cl)c(-c3ccc(S(=O)(=O)N[C@H]4C[C@H](O)C4)cc3)c(C(F)(F)F)c2)n[nH]1 [Compound 173, 4′-(5-amino-1H-1,2,4-triazol-3-ylamino)-2′-chloro-N-(trans-3-hydroxycyclobutyl)-6′-(trifluoromethyl)biphenyl-4-sulfonamide] | 0.019 | 0.007 | > 10
32 | COc1ccc(-c2c(Cl)cc(Nc3n[nH]c(N)n3)cc2C(F)(F)F)cc1S(=O)(=O)N1CCOCC1 [Compound 177, N3-(2-chloro-4′-methoxy-3′-(morpholinosulfonyl)-6-(trifluoromethyl)biphenyl-4-yl)-1H-1,2,4-triazole-3,5-diamine] | 0.018 | 0.003 | 23.4
